Source: patent US20230381503A1, “Compositions And Methods For Treating With A Combination Of Alternating Electric Fields And Ion Channel Inhibitors” (NOVOCURE GMBH, priority 2022, published 2023)

How the values were obtained:
[1] = tested on: human glioblastoma primary culture; assay: Cell number after TTFields plus CLIC1 inhibitor IAA94; assay type: cell-based; conditions: TTFields plus IAA94 vs TTFields alone or IAA94 alone, FIG. 12
Source text: Thus, the combination therapy is a very effective treatment.

pGBM = assay: Invasion / migration capacity of pGBM with IAA94; assay type: cell-based, human; conditions: FIG. 3
Source text: (§1) The cell count in different cell lines (SF188 and KNS42) with and without IAA94.
(§2) Similar efficacy was observed when using TTFields as a treatment for pGBM (FIG. 4).

GCE62, SF188 and KNS42 = assay: Cell proliferation of three cell lines treated with TTFields and IAA94; assay type: cell-based, human; conditions: TTFields and IAA94 compared to TTFields alone, FIG. 6
[2] = tested on: pGBM cell lines (SF188 and KNS42); assay: Cell count of pGBM cell lines with and without IAA94; assay type: cell-based, human; conditions: 100 uM IAA94, FIG. 3
Source text: as §1, §2

CC1(C2CCCC2)Cc2cc(OCC(=O)O)c(Cl)c(Cl)c2C1=O (centres unmarked) [IAA94]
cell number, combination with TTFields [1]: inhibits cell proliferation and/or kills more cells that TTFields alone or IAA94 alone
invasive capacity (pGBM; 100 uM IAA94, pGBM): reduces invasive capacity
capacity of pGBM to proliferate, invade and migrate (pGBM; inhibition of CLIC1 and CLIC4 by IAA94): reduced the capacity of pGBM to proliferate, invade and migrate
cell proliferation, combination with TTFields (GCE62, SF188 and KNS42): significantly reduced cell proliferation compared to TTFields alone
overall cell count [2]: reduces overall cell count
